Results on nine compounds are retold here after paper PMC9403717, “Ruthenium complexes show potent inhibition of AKR1C1, AKR1C2, and AKR1C3 enzymes and anti-proliferative action against chemoresistant ovarian cancer cell line” (Frontiers in Pharmacology, 2022).

By IC50 is commonly meant the midpoint of a concentration-inhibition curve.

Values joined by “and” are separate entries in the source; they are usually repeats but may differ in a detail not shown here. Identical values can stand only once.

The first assay relates to COV362 cells. The experiment in a line: Cell proliferation assay (alamarBlue), chemoresistant ovarian cancer cell line COV362. The class given is cell-based, human.
Settings: not given
As for the experimental part:
The cell line COV362 (CVCL_2,420) was originally established from a high-grade ovarian serous adenocarcinoma from a metastatic site in the pleural effusion ([van den Berg-Bakker et al., 1993]) and was purchased from ECACC (ECACC 07071910) as p37 on 13 October 2017. The growth medium for COV362 cells was DMEM (D5546; Sigma–Aldrich GmbH), with 10% FBS (F9665; Sigma–Aldrich GmbH) and 2 mM L-glutamine (G7513; Sigma–Aldrich GmbH). COV362 cells in passages p37 + 12 to p37 + 17 were used in this study and seeded at a concentration of 3.5 cells/ml × 10^4 cells/ml for proliferation studies and at a concentration of 5.3 × 10^5/ml for migration studies. The cell line OVCAR-4 (CVCL_1,627) is a high-grade serous ovarian adenocarcinoma cell line established from a patient refractory to cisplatin ([Johnson et al., 1997]). The cell line was purchased from Merck on 19 March 2021. The growth medium for OVCAR-4 cells was RPMI-1640 (Sigma R5586) supplemented with 2 mM glutamine (G7513; Sigma–Aldrich GmbH), 10% FBS (F9665; Sigma–Aldrich GmbH), 0.25 μg/ml insulin (I9278; Sigma–Aldrich GmbH). OVCAR-4 cells in passages p+6 to p+15 were used in this study and seeded at a concentration of 6 cells/ml × 10^4 cells/ml. The control cell line HIO80 (CVCL_E274) was obtained from Andrew K. Godwin (University of Kansas Medical Center, Kansas, United States) on 20 October 2017 as p+72. It was originally established from ovarian surface epithelium ([Yang et al., 2004]). HIO80 cells were grown in RPMI medium (R5886, Sigma–Aldrich GmbH) supplemented with 10% FBS (F9665; Sigma–Aldrich GmbH), 2 mm L-glutamine (G7513; Sigma–Aldrich GmbH) and 6.6 µg/ml insulin (I9278; Sigma–Aldrich GmbH). HIO80 cells in passages p72 + 8 to p72 + 19 were used in this study and seeded at a concentration of 2 × 10^4 cells/mL. HIO80 in passage +10 was authenticated by short tandem repeats (STR) profiling performed by ATCC on 22 February 2019. Cells were grown in a humidified atmosphere containing 5% CO2 at 37°C. All cell lines were negative for mycoplasma infection which was periodically tested using MycoAlert^TM mycoplasma detection kit (Lonza, Basel, Switzerland).
The effect of ruthenium compounds on the proliferation of ovarian cancer cell lines COV362 and OVCAR-4 and the control cell line HIO80 was analyzed using the cell proliferation reagent alamarBlue HS (A50101; Thermo Fisher Scientific) following the manufacturer’s instructions.
Cells were seeded in 96-well plates in 100 µL of medium and allowed to adhere and grow for 24 h. […] Cisplatin and carboplatin purchased from Sigma–Aldrich GmbH (cat. number: PHR1624, lot: LRAB7778) and (cat. number: C2538, lot: MKCK1243) were dissolved in sterile water. Working solutions were prepared by a serial dilution of stock solutions with a culture medium. After the initial incubation, cells were treated with ruthenium complexes, cisplatin, and carboplatin. A range of final concentrations between 0.001 and 300 µM were used for ruthenium complexes and cisplatin, and between 0.001 µM and 1 mM for carboplatin. After 48 h of incubation, plates were incubated with 20 µL of alamarBlue. After 4 h absorbance was measured with a BioTek microplate spectrophotometer at 570 nm, with the reference wavelength set at 600 nm. First, the background value of a well containing the active substance without cells was subtracted, then the average values for duplicates/triplicates were calculated. The absorbance of the well containing only untreated cells was used as a normalization control. The half-maximal […] concentration (IC50) was determined for all ruthenium complexes with a growth-inhibiting effect on cells by constructing a dose-response curve (Graph Pad Prism, Version 8.0).
A general note: The colour change of resazurin is a common sign of viable cells or microbes.
On to `C1N2CN3CN1CP(C2)C3.Cc1ccc(C(C)C)cc1.F[P-](F)(F)(F)(F)F.O=[N+]([O-])c1ccc([O][Ru+])c2ncccc12` [Compound 10, (η ^6-p-cymene)(nitroxolinato)(pta)ruthenium(II) hexafluorophosphate], for which the “effect on proliferation (in words)” value is “inactive”.

Staying with this assay, now noted: 48 h incubation.
Consider `Cc1ccc(C(C)C)cc1.O=C(C=C([O][Ru][Cl])c1ccc(I)cc1)C(F)(F)F` [Compound 1], for which the IC50 came out at 96.6 µM.

In the case of `C1N2CN3CN1CP(C2)C3.Cc1ccc(C(C)C)cc1.F[P-](F)(F)(F)(F)F.O=C(C=C([O][Ru+])c1ccc(I)cc1)C(F)(F)F` [Compound 2], the half-inhibitory concentration (IC50) was 141 µM.

`CN(C)c1ccc(C(=CC(=O)C(F)(F)F)[O][Ru][Cl])cc1.Cc1ccc(C(C)C)cc1` [Compound 3, (η^6-p-cymene)chlorido(4,4,4-trifluoro-1-(4-(dimethylamino)phenyl)-1,3-butandionato)ruthenium(II)]: the half-inhibitory concentration (IC50) was < 100 µM and 90.2 µM. `Cc1ccc(C(C)C)cc1.O=C(C=C([O][Ru][Cl])c1ccc2c(c1)OCO2)C(F)(F)F` [Compound 5] had an IC50 of 136 µM.

The compound `C1N2CN3CN1CP(C2)C3.Cc1ccc(C(C)C)cc1.F[P-](F)(F)(F)(F)F.O=C(C=C([O][Ru+])c1ccc2c(c1)OCO2)C(F)(F)F` [Compound 6] had a half-maximal inhibitory concentration (IC50) of 152 µM.

`Cc1ccc(C(C)C)cc1.[Cl-].[O-]c1c(I)cc(Cl)c2cccnc12.[Ru+2]` [Compound 7] had an IC50 of 17.7 µM. Same read-out and setting: then `C1N2CN3CN1CP(C2)C3.Cc1ccc(C(C)C)cc1.F[P-](F)(F)(F)(F)F.[O-]c1c(I)cc(Cl)c2cccnc12.[Ru+2]` [Compound 8], with 38 µM; and `Cc1ccc(C(C)C)cc1.O=[N+]([O-])c1ccc([O][Ru][Cl])c2ncccc12` [Compound 9, (η ^6-p-Cymene) (nitroxolinato)chloridoruthenium (II)], with 21.5 µM. For the compound `C1N2CN3CN1CP(C2)C3.Cc1ccc(C(C)C)cc1.F[P-](F)(F)(F)(F)F.O=[N+]([O-])c1ccc([O][Ru+])c2ncccc12` [Compound 10, (η ^6-p-cymene)(nitroxolinato)(pta)ruthenium(II) hexafluorophosphate], the IC50 is above 200 µM.
